Laboratory results from patent US8916570B2 (The United States of America, as represented by the …, priority 2008, dated 2014).

Assays:
hA1AR = target: T1, hA1AR (Homo sapiens, UniProt P30542); assay: Binding at hA1AR, CHO membranes (Example 7); conditions: read-out: % inhibition hA1
T1 construct: expressed in transfected cells; host or cells: CHO
T1 sequence (P30542 1-326): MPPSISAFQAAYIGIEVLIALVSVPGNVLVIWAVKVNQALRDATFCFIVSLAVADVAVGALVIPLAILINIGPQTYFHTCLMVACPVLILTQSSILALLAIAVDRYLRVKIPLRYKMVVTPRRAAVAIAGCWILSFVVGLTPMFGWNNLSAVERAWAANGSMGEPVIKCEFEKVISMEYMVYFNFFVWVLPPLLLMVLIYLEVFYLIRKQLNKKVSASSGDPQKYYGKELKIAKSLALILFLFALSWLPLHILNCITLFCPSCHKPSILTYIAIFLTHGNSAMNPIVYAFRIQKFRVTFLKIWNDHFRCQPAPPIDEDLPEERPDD
Protocol: (§1) CHO cells stably expressing the recombinant hA1, hA3, and rA3Rs, and HEK-293 cells stably expressing the hA2AAR were cultured in Dulbecco's modified Eagle medium (DMEM) and F12 (1:1) supplemented with 10% fetal bovine serum, 100 units/mL penicillin, 100 μg/mL streptomycin, and 2 μmol/mL glutamine. In addition, 800 μg/mL geneticin was added to the A2A media, while 500 μg/mL hygromycin was added to the A1 and A3 media. After harvesting, cells were homogenized and suspended in PBS. Cells were then centrifuged at 240 g for 5 min, and the pellet was resuspended in 50 mM Tris-HCl buffer (pH 7.5) containing 10 mM MgCl2. The suspension was homogenized and was then ultra-centrifuged at 14,330 g for 30 min at 4° C. […] The protein concentration was measured using the BCA Protein Assay Kit from Pierce Biotechnology, Inc. (Rockford, Ill.).
(§2) Into each tube in the binding assay was added 50 μL of increasing concentrations of the test ligand in Tris-HCl buffer (50 mM, pH 7.5) containing 10 mM MgCl2, 50 μL of the appropriate agonist radioligand, and finally 100 μL of membrane suspension. […] For the A2AAR (20 μg/tube) the radioligand used was [^3H]53 (10 nM). […] Nonspecific binding was determined using a final concentration of 10 μM 51 diluted with the buffer. The mixtures were incubated at 25° C. for 60 min in a shaking water bath. Binding reactions were terminated by filtration through Brandel GF/B filters under a reduced pressure using a M-24 cell harvester (Brandel, Gaithersburg, Md.). Filters were washed three times with 3 mL of 50 mM ice-cold Tris-HCl buffer (pH 7.5). […] Filters for A3AR binding were counted using a Packard COBRA™ II γ-counter. The Ki values were determined using GraphPad Prism for all assays.

hA2AAR = target: T2, hA2AAR (Homo sapiens, UniProt P29274); assay: Binding at hA2AAR, HEK-293 membranes (Example 7); conditions: for inhibition at 10 µM: read-out: % inhibition hA2A; for Ki: read-out: Affinity (Ki, nM) hA2A
T2 construct: expressed in transfected cells
Protocol: After harvesting, cells were homogenized and suspended in PBS.
Nonspecific binding was determined using a final concentration of 10 μM 51 diluted with the buffer.

hA3AR = target: T3, hA3AR (Homo sapiens, UniProt P0DMS8); assay: Binding at hA3AR, CHO membranes (Example 7); conditions: read-out: Affinity (Ki, nM) hA3
T3 construct: expressed in transfected cells; host or cells: CHO
T3 sequence (P0DMS8 1-318): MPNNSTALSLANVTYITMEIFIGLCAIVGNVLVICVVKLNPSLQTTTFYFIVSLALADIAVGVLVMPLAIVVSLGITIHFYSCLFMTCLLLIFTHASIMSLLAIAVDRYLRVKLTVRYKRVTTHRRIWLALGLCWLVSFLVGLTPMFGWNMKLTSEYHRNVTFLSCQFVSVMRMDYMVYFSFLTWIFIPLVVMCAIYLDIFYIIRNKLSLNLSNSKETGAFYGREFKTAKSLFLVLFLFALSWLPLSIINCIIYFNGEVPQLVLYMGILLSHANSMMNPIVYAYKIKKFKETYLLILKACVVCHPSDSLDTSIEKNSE
Protocol: as §1, §2

T2 sequence (P29274 whole entry): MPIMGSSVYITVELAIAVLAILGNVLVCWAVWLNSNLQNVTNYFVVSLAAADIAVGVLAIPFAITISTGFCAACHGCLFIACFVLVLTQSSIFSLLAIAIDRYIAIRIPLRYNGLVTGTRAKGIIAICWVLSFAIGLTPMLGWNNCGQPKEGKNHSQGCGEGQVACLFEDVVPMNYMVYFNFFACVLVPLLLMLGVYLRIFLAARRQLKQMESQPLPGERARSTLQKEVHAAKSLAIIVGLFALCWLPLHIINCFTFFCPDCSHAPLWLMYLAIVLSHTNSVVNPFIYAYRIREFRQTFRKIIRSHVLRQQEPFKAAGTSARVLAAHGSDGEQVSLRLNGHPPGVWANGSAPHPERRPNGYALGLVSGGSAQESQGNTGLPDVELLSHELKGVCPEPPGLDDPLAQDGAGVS

SMILES | inhibition at 10 µM (hA1AR) [%] | inhibition at 10 µM (hA2AAR) [%] | Ki (hA3AR) [nM] | Ki (hA2AAR) [nM]
CNC(=O)[C@@]12C[C@@H]1[C@@H](n1cnc3c(NC)nc(C#Cc4ccccc4)nc31)[C@H](O)[C@@H]2O [Compound 309, (1S,2R,3S,4R,5S)-2,3-Dihydroxy-N-methyl-4-(6-(methylamino)-2-(phenylethynyl)-9H-purin-9-yl)bicyclo[3.1.0]hexane-1-carboxamide] | 18 | 14 |  | 
CNC(=O)[C@@]12C[C@@H]1[C@@H](n1cnc3c(NC)nc(C#Cc4ccccn4)nc31)[C@H](O)[C@@H]2O [Compound 310, (1S,2R,3S,4R,5S)-2,3-Dihydroxy-N-methyl-4-(6-(methylamino)-2-(pyridin-2-ylethynyl)-9H-purin-9-yl)bicyclo[3.1.0]hexane-1-carboxamide] | 13 | 13 |  | 
CNC(=O)[C@@]12C[C@@H]1[C@@H](n1cnc3c(NC)nc(C#Cc4ccccc4F)nc31)[C@H](O)[C@@H]2O [Compound 311, (1S,2R,3S,4R,5S)-4-(2-((2-Fluorophenyl)ethynyl)-6-(methylamino)-9H-purin-9-yl)-2,3-dihydroxy-N-methylbicyclo[3.1.0]hexane-1-carboxamide] | 20 | 17 | 0.97 ± 0.38 | 
CNC(=O)[C@@]12C[C@@H]1[C@@H](n1cnc3c(NC)nc(C#Cc4cccc(F)c4)nc31)[C@H](O)[C@@H]2O [Compound 312, (1S,2R,3S,4R,5S)-4-(2-((3-Fluorophenyl)ethynyl)-6-(methylamino)-9H-purin-9-yl)-2,3-dihydroxy-N-methylbicyclo[3.1.0]hexane-1-carboxamide] | 14 | 10 | 0.97 ± 0.24 | 
CNC(=O)[C@@]12C[C@@H]1[C@@H](n1cnc3c(NC)nc(C#Cc4cccc(Cl)c4)nc31)[C@H](O)[C@@H]2O [Compound 315, (1S,2R,3S,4R,5S)-4-(2-((3-Chlorophenyl)ethynyl)-6-(methylamino)-9H-purin-9-yl)-2,3-dihydroxy-N-methylbicyclo[3.1.0]hexane-1-carboxamide] | 11 |  | 1.6 ± 0.6 | 1270 ± 300
CNC(=O)[C@@]12C[C@@H]1[C@@H](n1cnc3c(NC)nc(C#Cc4ccc(Cl)cc4)nc31)[C@H](O)[C@@H]2O [Compound 316, (1S,2R,3S,4R,5S)-4-(2-((4-Chlorophenyl)ethynyl)-6-(methylamino)-9H-purin-9-yl)-2,3-dihydroxy-N-methylbicyclo[3.1.0]hexane-1-carboxamide] | 13 | 30 | 1.22 ± 0.31 | 
CNC(=O)[C@@]12C[C@@H]1[C@@H](n1cnc3c(NC)nc(C#Cc4ccc(Br)cc4)nc31)[C@H](O)[C@@H]2O [Compound 317, (1S,2R,3S,4R,5S)-4-(2-((4-Bromophenyl)ethynyl)-6-(methylamino)-9H-purin-9-yl)-2,3-dihydroxy-N-methylbicyclo[3.1.0]hexane-1-carboxamide] | 11 | 26 | 0.91 ± 0.06 | 
CNC(=O)[C@@]12C[C@@H]1[C@@H](n1cnc3c(NC)nc(C#Cc4cccc(N)c4)nc31)[C@H](O)[C@@H]2O [Compound 318, (1S,2R,3S,4R,5S)-4-(2-((3-Aminophenyl)ethynyl)-6-(methylamino)-9H-purin-9-yl)-2,3-dihydroxy-N-methylbicyclo[3.1.0]hexane-1-carboxamide] | 16 | 19 | 1.07 ± 0.14 | 
CNC(=O)[C@@]12C[C@@H]1[C@@H](n1cnc3c(NC)nc(C#Cc4ccc(F)c(F)c4)nc31)[C@H](O)[C@@H]2O [Compound 319, (1S,2R,3S,4R,5S)-4-(2-((3,4-Difluorophenyl)ethynyl)-6-(methylamino)-9H-purin-9-yl)-2,3-dihydroxy-N-methylbicyclo[3.1.0]hexane-1-carboxamide] | 6 | 6 | 1.65 ± 0.08 | 
CNC(=O)[C@@]12C[C@@H]1[C@@H](n1cnc3c(NC)nc(C#Cc4cc(F)cc(F)c4)nc31)[C@H](O)[C@@H]2O [Compound 320, (1S,2R,3S,4R,5S)-4-(2-((3,5-Difluorophenyl)ethynyl)-6-(methylamino)-9H-purin-9-yl)-2,3-dihydroxy-N-methylbicyclo[3.1.0]hexane-1-carboxamide] | 6 | 47 | 1.66 ± 0.36 | 
CCc1ccc(C#Cc2nc(NC)c3ncn([C@H]4[C@H](O)[C@H](O)[C@]5(C(=O)NC)C[C@H]45)c3n2)cc1 [Compound 321, (1S,2R,3S,4R,5S)-4-(2-((4-Ethylphenyl)ethynyl)-6-(methylamino)-9H-purin-9-yl)-2,3-dihydroxy-N-methylbicyclo[3.1.0]hexane-1-carboxamide] | 14 | 38 | 3.78 ± 1.16 | 
CNC(=O)[C@@]12C[C@@H]1[C@@H](n1cnc3c(NC)nc(C#Cc4ccc(C(C)(C)C)cc4)nc31)[C@H](O)[C@@H]2O [Compound 322, (1S,2R,3S,4R,5S)-4-(2-((4-tert-Butylphenyl)ethynyl)-6-(methylamino)-9H-purin-9-yl)-2,3-dihydroxy-N-methylbicyclo[3.1.0]hexane-1-carboxamide] | 27 | 7 | 10.1 ± 1.9 | 
CNC(=O)[C@@]12C[C@@H]1[C@@H](n1cnc3c(NC)nc(C#Cc4ccc(C(C)=O)cc4)nc31)[C@H](O)[C@@H]2O [Compound 323, (1S,2R,3S,4R,5S)-4-(2-((4-Acetylphenyl)ethynyl)-6-(methylamino)-9H-purin-9-yl)-2,3-dihydroxy-N-methylbicyclo[3.1.0]hexane-1-carboxamide] | 8 | 62 | 2.57 ± 0.78 | 
CNC(=O)[C@@]12C[C@@H]1[C@@H](n1cnc3c(NC)nc(C#Cc4ccc(-c5ccccc5)cc4)nc31)[C@H](O)[C@@H]2O [Compound 324, (1S,2R,3S,4R,5S)-4-(2-(Biphenyl-4-ylethynyl)-6-(methylamino)-9H-purin-9-yl)-2,3-dihydroxy-N-methylbicyclo[3.1.0]hexane-1-carboxamide] | 20 | 29 | 3.1 ± 1.26 | 
CNC(=O)[C@@]12C[C@@H]1[C@@H](n1cnc3c(NC)nc(C#Cc4cccc5ccccc45)nc31)[C@H](O)[C@@H]2O [Compound 325, (1S,2R,3S,4R,5S)-2,3-Dihydroxy-N-methyl-4-(6-(methylamino)-2-(naphthalen-1-ylethynyl)-9H-purin-9-yl)bicyclo[3.1.0]hexane-1-carboxamide] | 24 | 34 | 1.67 ± 0.18 | 
CNC(=O)[C@@]12C[C@@H]1[C@@H](n1cnc3c(NC)nc(C#Cc4cc5ccccc5c5ccccc45)nc31)[C@H](O)[C@@H]2O [Compound 326, (1S,2R,3S,4R,5S)-2,3-Dihydroxy-N-methyl-4-(6-(methylamino)-2-(phenanthren-9-ylethynyl)-9H-purin-9-yl)bicyclo[3.1.0]hexane-1-carboxamide] | 15 | 52 | 3.48 ± 1.36 | 
CNC(=O)[C@@]12C[C@@H]1[C@@H](n1cnc3c(NCc4cccc(Cl)c4)nc(C#Cc4cccc(Cl)c4)nc31)[C@H](O)[C@@H]2O [Compound 330, (1S,2R,3S,4R,5S)-4-(6-(3-Chlorobenzylamino)-2-((3-chlorophenyl)ethynyl)-9H-purin-9-yl)-2,3-dihydroxy-N-methylbicyclo[3.1.0]hexane-1-carboxamide] | 0 |  | 1.95 | 1620
CNC(=O)[C@@]12C[C@@H]1[C@@H](n1cnc3c(NCc4cccc(Cl)c4)nc(C#Cc4ccc(F)c(F)c4)nc31)[C@H](O)[C@@H]2O [Compound 331, (1S,2R,3S,4R,5S)-4-(6-(3-Chlorobenzylamino)-2-((3,4-difluorophenyl)ethynyl)-9H-purin-9-yl)-2,3-dihydroxy-N-methylbicyclo[3.1.0]hexane-1-carboxamide] | 3 | 41 |  | 
CNC(=O)[C@@]12C[C@@H]1[C@@H](n1cnc3c(NCc4cccc(Cl)c4)nc(C#Cc4cccc(C(=O)O)c4)nc31)[C@H](O)[C@@H]2O [Compound 333, 3-((6-(3-Chlorobenzylamino)-9-((1S,2R,3S,4R,5S)-3,4-dihydroxy-5-(methylcarbamoyl)bicyclo[3.1.0]hexan-2-yl)-9H-purin-2-yl)ethynyl)benzoic acid] | 1 | 38 | 6.75 ± 2.78 | 
CNC(=O)[C@@]12C[C@@H]1[C@@H](n1cnc3c(NCc4cccc(Cl)c4)nc(C#Cc4ccc5ccc6cccc7ccc4c5c67)nc31)[C@H](O)[C@@H]2O [Compound 336, (1S,2R,3S,4R,5S)-4-(6-(3-Chlorobenzylamino)-2-(pyren-1-ylethynyl)-9H-purin-9-yl)-2,3-dihydroxy-N-methylbicyclo[3.1.0]hexane-1-carboxamide] | 6 | 66 | 68.3 ± 12.5 | 
